Drawing on US9815842B2, “Pyrazolo pyrimidine derivatives and their use as MALT1 inhibitors” (Novartis AG, priority 2014, dated 2017), this text covers IC50 for 23 compounds.

pIC50: −log10 of the molar value.

For experiment [1], the target named is cIAP2-MALT1 fusion protein (Homo sapiens, UniProt Q9UDY8). The experiment is described as follows: cell-based.
Experimental: For the measurement of compound inhibition, 0.25 μl of test compound were mixed with 12.5 μl of enzyme in wells of the 384-well plates, and incubated for 60 minutes at room temperature (22° C.). After that, 12.5 μl of substrate was added, and the enzymatic reaction was allowed to proceed for 60 minutes at room temperature (22° C.). […] The DMSO content was between 0.9 and 1% (v/v). […] The IC50 value was calculated from the plot of percentage inhibition versus inhibitor concentration using non-linear regression analysis software (Origin, OriginLab Corporation, USA). The data were fitted using a 4 Parameter Logistic Model, characterized by the following equation: y=A2+(A1−A2)/(1+(x/IC50)^p) where y is the %-inhibition at the inhibitor concentration, x. A1 is the lowest inhibition value, and A2 the maximum inhibition value.
In experiment [2] the target is C-domain of MALT1 (amino acids 329-824) (Homo sapiens (Human), UniProt Q9UDY8). As to the kind of experiment: MALT1 biochemical assay (fluorescence lifetime enzyme activity assay). Particulars: 60 min pre-incubation, 2.5 nM enzyme, 1 μM peptide substrate. As to the method:
The readout parameter is the increase of fluorescence lifetime over time, proportional to enzyme activity.
The assay employs a short peptide substrate labeled with the single fluorophore PT14 as a fluorescence lifetime probe sensitive to the cleavage state of the substrate (PT14: 6-(9-oxo-9H-acridin-10-yl)-hexanoate, AssayMetrics, UK). […] The assay buffer consists of 200 mM Tris/HCl at pH 7.5, 0.8 M Na citrate, 100 μM EGTA, 100 μM DTT and 0.05% (w/v) CHAPS. […] Test compounds were dissolved in 100% (v/v) DMSO or a mixture containing 90% (v/v) DMSO and 10% (v/v) H2O at a stock concentration of 100 mM. Serial dilutions of test compounds were prepared using either 100% (v/v) DMSO or a mixture containing 90% (v/v) DMSO and 10% (v/v) H2O.

The test system of experiment [3] is Human IL2 promoter. As to the kind of experiment: Human IL2 promoter reporter gene assay (RGA) in Jurkat cells. The experiment is classed as cell-based. Particulars: Jurkat clone K22 290_H23, anti-CD28 mAb + PMA stimulation 5.5 h. As to the method: Human IL2 Promoter Reporter Gene Assay (RGA) in Jurkat Cells
The transfected Jurkat clone K22 290_H23 was propagated in RPMI 1640 supplemented with 10% heat inactivated fetal calf serum, 50 μM 2-mercaptoethanol and 1 mg/ml Geneticin. The cell concentration should not exceed 1×10e6/ml during culturing. The cells should not exceed passage 30. Prior to the assay the cells were washed and prepared to the concentration of 2×10e6 cells/ml.
Compound dilutions were made as 2×-concentrated solutions then diluted 1/2 by addition to cells. Two hundred and fifty μl of compound dilution and 250 μl of cells were mixed together in wells of a 96-deep well plate. Cells/compounds premix were incubated 30 min at 37° C. and 5% CO2 directly in the deep well plate.
After pre-incubation of cells with compounds, cells were stimulated with anti-CD28 mAb (clone 15E8) at 3 μg/ml+PMA at 1 μg/ml. Both co-stimulants were diluted in culture medium at a 10×-concentrated solution. 10 μl of co-stimulants were pipetted into the white 96-well plates and 100 μl of cell/compound mix was immediately added in duplicates. The cells were stimulated for 5.5 h at 37° C. and 5% CO2.
After cell stimulation, 50 μl of BriteLitePlus reagent (Perkin Elmer) was added to each well and the bioluminescence was measured with a Wallac EnVision reader (Perkin Elmer).
In general terms: In a reporter assay the amount or activity of a reporter protein is the signal.

Chain of cIAP2-MALT1 fusion protein (Q9UDY8 2-824 limits assumed): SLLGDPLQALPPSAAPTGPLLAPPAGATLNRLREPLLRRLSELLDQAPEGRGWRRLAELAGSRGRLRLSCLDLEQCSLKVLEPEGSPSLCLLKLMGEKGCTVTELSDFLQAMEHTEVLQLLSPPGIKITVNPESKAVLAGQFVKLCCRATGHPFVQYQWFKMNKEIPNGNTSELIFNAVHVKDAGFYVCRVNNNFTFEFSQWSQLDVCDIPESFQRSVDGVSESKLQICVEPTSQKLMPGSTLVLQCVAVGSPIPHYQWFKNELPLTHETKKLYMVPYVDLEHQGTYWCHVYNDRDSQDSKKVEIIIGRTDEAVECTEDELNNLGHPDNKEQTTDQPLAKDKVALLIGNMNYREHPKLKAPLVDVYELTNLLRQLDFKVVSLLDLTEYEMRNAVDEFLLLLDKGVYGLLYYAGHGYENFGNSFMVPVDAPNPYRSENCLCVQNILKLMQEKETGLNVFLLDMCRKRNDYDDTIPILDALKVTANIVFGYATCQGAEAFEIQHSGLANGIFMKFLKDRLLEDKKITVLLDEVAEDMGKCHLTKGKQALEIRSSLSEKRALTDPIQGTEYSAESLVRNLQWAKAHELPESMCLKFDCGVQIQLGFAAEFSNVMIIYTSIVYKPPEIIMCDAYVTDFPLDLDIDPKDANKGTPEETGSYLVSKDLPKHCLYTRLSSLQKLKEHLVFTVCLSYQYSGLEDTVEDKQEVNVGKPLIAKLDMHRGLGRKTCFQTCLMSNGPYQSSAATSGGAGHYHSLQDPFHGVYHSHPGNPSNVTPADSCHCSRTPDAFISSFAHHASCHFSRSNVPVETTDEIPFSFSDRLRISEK
Chain of C-domain of MALT1 (amino acids 329-824) (Q9UDY8 329-824): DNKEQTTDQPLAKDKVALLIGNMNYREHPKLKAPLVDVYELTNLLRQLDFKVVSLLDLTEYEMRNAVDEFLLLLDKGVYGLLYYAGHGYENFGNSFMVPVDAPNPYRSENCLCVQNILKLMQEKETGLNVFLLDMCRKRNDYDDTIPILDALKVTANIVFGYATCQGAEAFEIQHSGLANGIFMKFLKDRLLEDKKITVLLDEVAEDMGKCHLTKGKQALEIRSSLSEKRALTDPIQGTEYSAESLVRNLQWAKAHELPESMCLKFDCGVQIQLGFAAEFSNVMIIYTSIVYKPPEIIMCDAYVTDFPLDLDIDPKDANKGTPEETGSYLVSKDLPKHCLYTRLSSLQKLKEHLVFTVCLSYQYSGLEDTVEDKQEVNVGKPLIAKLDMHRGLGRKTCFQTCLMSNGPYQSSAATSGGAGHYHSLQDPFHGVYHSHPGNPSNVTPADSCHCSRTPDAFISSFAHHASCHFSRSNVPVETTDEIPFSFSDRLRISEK

What is called pIC50 is −log10 of the IC50, conventionally taken in molar units. Turning to `COC(=O)c1cc(Cl)cc(NC(=O)Nc2cnc3cc(Cl)nn3c2[C@H](C)OC)c1` [Example 13, (S)-methyl 3-chloro-5-(3-(2-chloro-7-(1-methoxyethyl)pyrazolo[1,5-a]pyrimidin-6-yl)ureido)benzoate], the negative-log IC50 (pIC50) in experiment [1] was 7.11; in experiment [2], 8.70; in experiment [3] it was 7.41.
On the same counts, the results for `COC(C)(C)c1c(NC(=O)Nc2cnc(-n3nccn3)c(Cl)c2)cnc2cc(Cl)nn12` [Example 14, 1-(5-chloro-6-(2H-1,2,3-triazol-2-yl)pyridin-3-yl)-3-(2-chloro-7-(2-methoxypropan-2-yl)pyrazolo[1,5-a]pyrimidin-6-yl)urea] are 7.31, 8.52 and 7.17.
On the same counts, the results for `COc1ncc(NC(=O)Nc2cnc3cc(Cl)nn3c2C(C)C)cc1Cl` [Example 18, 1-(5-chloro-6-methoxypyridin-3-yl)-3-(2-chloro-7-isopropylpyrazolo[1,5-a]pyrimidin-6-yl)urea] are 6.83, 8.52 and 6.68.
As for `Cc1ncn(-c2ccc(NC(=O)Nc3cnc4cc(Cl)nn4c3C(C)C)cc2C#N)n1` [Example 19, 1-(2-chloro-7-isopropylpyrazolo[1,5-a]pyrimidin-6-yl)-3-(3-cyano-4-(3-methyl-1H-1,2,4-triazol-1-yl)phenyl)urea], the pIC50 in experiment [1] is 7.04; in experiment [2] it was 8.52; in experiment [3], 6.83.
In the case of `CC(C)c1c(NC(=O)Nc2ccc(-c3ccnc(N)n3)c(Cl)c2)cnc2cc(Cl)nn12` [Example 23, 1-(4-(2-aminopyrimidin-4-yl)-3-chlorophenyl)-3-(2-chloro-7-isopropylpyrazolo[1,5-a]pyrimidin-6-yl)urea], the pIC50 in experiment [1] was 6.52; in experiment [3], 6.51.
For `CCOc1ncc(NC(=O)Nc2cnc3cc(Cl)nn3c2C(C)C)cc1Cl` [Example 25, 1-(5-chloro-6-ethoxypyridin-3-yl)-3-(2-chloro-7-isopropylpyrazolo[1,5-a]pyrimidin-6-yl)urea], in that order: 6.51 and 6.28.
With `COCCO[C@H](C)c1c(NC(=O)Nc2cnc(-n3nccn3)c(Cl)c2)cnc2cc(Cl)nn12` [Example 42, (R)-1-(5-chloro-6-(2H-1,2,3-triazol-2-yl)pyridin-3-yl)-3-(2-chloro-7-(1-(2-methoxyethoxy)ethyl)pyrazolo[1,5-a]pyrimidin-6-yl)urea], the figures for the pIC50 in experiment [1] and in experiment [2] were 6.42 and 7.68, respectively.
For `COC(c1ccccc1)c1c(NC(=O)Nc2cnc(-n3nccn3)c(Cl)c2)cnc2cc(Cl)nn12` (centres unmarked) [Example 49, 1-(5-chloro-6-(2H-1,2,3-triazol-2-yl)pyridin-3-yl)-3-(2-chloro-7-(methoxy(phenyl)methyl)pyrazolo[1,5-a]pyrimidin-6-yl)urea], in that order: 7.23 and 8.52.
For `COCC1(c2c(NC(=O)Nc3cnc(-n4nccn4)c(Cl)c3)cnc3cc(Cl)nn23)CCC1` [Example 50, 1-(5-chloro-6-(2H-1,2,3-triazol-2-yl)pyridin-3-yl)-3-(2-chloro-7-(1-(methoxymethyl)cyclobutyl)pyrazolo[1,5-a]pyrimidin-6-yl)urea], in that order: 6.64 and 7.70.
`COc1ccccc1-c1c(NC(=O)Nc2cnc(-n3nccn3)c(Cl)c2)cnc2cc(Cl)nn12` [Example 53, 1-(5-chloro-6-(2H-1,2,3-triazol-2-yl)pyridin-3-yl)-3-(2-chloro-7-(2-methoxyphenyl)pyrazolo[1,5-a]pyrimidin-6-yl)urea]: the pIC50 in experiment [1] was 6.77; in experiment [2], 8.40.
On the same counts, the results for `CC1(c2c(NC(=O)Nc3cnc(-n4nccn4)c(Cl)c3)cnc3cc(Cl)nn23)CCOCC1` [Example 55, 1-(5-chloro-6-(2H-1,2,3-triazol-2-yl)pyridin-3-yl)-3-(2-chloro-7-(4-methyltetrahydro-2H-pyran-4-yl)pyrazolo[1,5-a]pyrimidin-6-yl)urea] are 6.54 and 8.30.
Regarding `O=C(Nc1cnc(-n2nccn2)c(Cl)c1)Nc1cnc2cc(Cl)nn2c1C1CCOC1` (centres unmarked) [Example 57, 1-(5-chloro-6-(2H-1,2,3-triazol-2-yl)pyridin-3-yl)-3-(2-chloro-7-(tetrahydrofuran-3-yl)pyrazolo[1,5-a]pyrimidin-6-yl)urea], the pIC50 in experiment [1] was 6.55; in experiment [2], 7.72.
For `O=C(Nc1cnc(-n2nccn2)c(Cl)c1)Nc1cnc2cc(Cl)nn2c1CC1CCOCC1` [Example 60, 1-(5-chloro-6-(2H-1,2,3-triazol-2-yl)pyridin-3-yl)-3-(2-chloro-7-((tetrahydro-2H-pyran-4-yl)methyl)pyrazolo[1,5-a]pyrimidin-6-yl)urea], in that order: 6.30 and 7.59.
With `CC(C)OCc1c(NC(=O)Nc2cnc(-n3nccn3)c(Cl)c2)cnc2cc(Cl)nn12` [Example 61, 1-(5-chloro-6-(2H-1,2,3-triazol-2-yl)pyridin-3-yl)-3-(2-chloro-7-(isopropoxymethyl)pyraozlo[1,5-a]pyrimidin-6-yl)urea], the pIC50 in experiment [1] is 6.43; in experiment [2], 7.72.
For `COCCC(OC)c1c(NC(=O)Nc2cnc(-n3nccn3)c(Cl)c2)cnc2cc(Cl)nn12` (centres unmarked) [Example 64, 1-(5-chloro-6-(2H-1,2,3-triazol-2-yl)pyridin-3-yl)-3-(2-chloro-7-(1,3-dimethoxypropyl)pyrazolo[1,5-a]pyrimidin-6-yl)urea], in that order: 6.73 and 7.89.
As to `C[C@@H](OCc1ccccc1)c1c(NC(=O)Nc2cnc(-n3nccn3)c(C(F)(F)F)c2)cnc2cc(Cl)nn12` [Example 65, (R)-1-(6-(2H-1,2,3-triazol-2-yl)-5-(trifluoromethyl)pyridin-3-yl)-3-(7-(1-(benzyloxy)ethyl)-2-chloropyrazolo[1,5-a]pyrimidin-6-yl)urea], the negative logarithm of the IC50 (pIC50) in experiment [1] was 6.39; in experiment [2], 8.05.
On the same counts, the results for `COc1ncc(NC(=O)Nc2cnc3cc(Cl)nn3c2C2C3COCC32)cc1Cl` (centres unmarked) [Example 67, 1-(7-(3-oxabicyclo[3.1.0]hexan-6-yl)-2-chloropyrazolo[1,5-a]pyrimidin-6-yl)-3-(5-chloro-6-methoxypyridin-3-yl)urea] are 6.26 and 7.46.
As to `CN(C)C(=O)c1c(NC(=O)Nc2cnc(-n3nccn3)c(Cl)c2)cnc2cc(Cl)nn12` [Example 70, 2-chloro-6-(3-(5-chloro-6-(2H-1,2,3-triazol-2-yl)pyridin-3-yl)ureido)-N,N-dimethylpyrazolo[1,5-a]pyrimidine-7-carboxamide], the pIC50 is 6.05 in experiment [1] and 6.91 in experiment [2].
On the same counts, the results for `COCC1(c2c(NC(=O)Nc3ccnc(C(F)(F)F)c3)cnc3cc(Cl)nn23)CC1` [Example 77, 1-(2-chloro-7-(1-(methoxymethyl)cyclopropyl)pyrazolo[1,5-a]pyrimidin-6-yl)-3-(2-(trifluoromethyl)pyridin-4-yl)urea] are 6.62 and 8.22.
As for `CC(C)(c1c(NC(=O)Nc2ccnc(C(F)(F)F)c2)cnc2cc(Cl)nn12)C1CCOCC1` [Example 80, 1-(2-chloro-7-(2-(tetrahydro-2H-pyran-4-yl)propan-2-yl)pyrazolo[1,5-a]pyrimidin-6-yl)-3-(2-(trifluoromethyl)pyridin-4-yl)urea], the values for the pIC50 in experiment [1] and in experiment [2] were 6.21 and 7.47, respectively.
On the same counts, the results for `C[C@H](OCCN(C)C)c1c(NC(=O)Nc2cnc(-n3nccn3)c(Cl)c2)cnc2cc(Cl)nn12` [Example 82, (S)-1-(5-chloro-6-(2H-1,2,3-triazol-2-yl)pyridin-3-yl)-3-(2-chloro-7-(1-(2-(dimethylamino)ethoxy)ethyl)pyrazolo[1,5-a]pyrimidin-6-yl)urea] are 6.51 and 6.91.
Turning to `CN1CCCC[C@H]1c1c(NC(=O)Nc2cnc(-n3nccn3)c(Cl)c2)cnc2cc(Cl)nn12` [Example 84, (S)-1-(5-chloro-6-(2H-1,2,3-triazol-2-yl)pyridin-3-yl)-3-(2-chloro-7-(1-methylpiperidin-2-yl)pyrazolo[1,5-a]pyrimidin-6-yl)urea], the pIC50 was 7.05 in experiment [1] and 7.72 in experiment [2].
`CO[C@H](C)CO[C@@H](C)c1c(NC(=O)Nc2cnc(-n3nccn3)c(Cl)c2)cnc2cc(Cl)nn12` [Example 85, 1-(5-chloro-6-(2H-1,2,3-triazol-2-yl)pyridin-3-yl)-3-(2-chloro-7-((S)-1-((R)-2-methoxypropoxy)ethyl)pyrazolo[1,5-a]pyrimidin-6-yl)urea]: the figures for the pIC50 in experiment [1] and in experiment [2] were 6.72 and 8.30, respectively.
